Consider six molecules from BindingDB's records for PubMed 38988222 (Hebei University of Science & Technology).

Assay [1] can be described thus: Inhibition of Ribosomal protein S6 kinase in human THP-1 cells by ELISA analysis. For orientation: An ELISA detects its analyte on a solid surface through an enzyme-linked reagent.
The target in assay [2] is PI3K catalytic subunit gamma. In words: Inhibition of P13Kgamma (unknown origin) in the presence of ATP by scintillation proximity assay. In general terms: In a scintillation proximity assay essentially only radioactivity close to the scintillant gives light.
Assay [3] concerns the target PI3K catalytic subunit beta. In words: Inhibition of P13Kbeta (unknown origin) in the presence of ATP by scintillation proximity assay.

Where only a bound is given, the exact number is not on record here.

For `CC(NC(=O)c1c(N)nn2cccnc12)c1cc(Cl)c2c(C#N)ncn2c1N1CCS(=O)(=O)C(C)C1` (stereo unspecified), the IC50 (as a rule, the concentration that inhibits the measured activity by half) in assay [1] was < 300 nM. On to `Cc1cc(S(=O)(=O)N[C@H]2CC[C@H](O)CC2)ccc1-c1cnc2c(N)c(Cl)ccn12`, for which, in assay [2], the IC50 is < 100 nM. In the case of `Cc1cc(S(=O)(=O)N[C@H]2CC[C@H](O)CC2)ccc1-c1cnc(N)c(C(=O)C2CC2)n1`, the half-inhibitory concentration (IC50) in assay [3] came out at 400 nM. On the same count and under the same terms, with `Cc1ncc(-c2cc(-c3ccc(S(=O)(=O)NCC(C)(C)O)cc3C)cnc2N)o1` the figure was 1700 nM.

`Clc1ccc(Cn2cc(-c3ccnc(-c4ncc(-c5ccccc5)[nH]4)c3)cn2)cc1` [US11352340, Example 1]: the IC50 in assay [2] is < 50 nM. For the molecule `Cc1nnc(-c2cc(-c3cc4c(c(S(C)(=O)=O)c3)C(=O)N([C@@H](C)C3CC3)C4)ccn2)[nH]1` [US11396502, Example 12], the IC50 in assay [2] was < 100 nM.
